The results in this text go back to patent US10487093B2, “Heterocyclic compounds, in particular 2-oxo-4,4,5,5,6,6,7,7-octahydrobenzoxazole derivatives, and their use as antibacterial compounds” (priority 2016, dated 2019).

Assay [1] deals with Acinetobacter baumannii NCTC 13420. The assay is described as follows: MIC, broth microdilution (CLSI) versus planktonic bacteria. The class given is cell-based. Conditions: NCTC13420; Acinetobacter baumannii NCTC 13420; 16-20 h; mode of three independent experiments; read-out: MIC, Ab NCTC 13420.
For assay [2], the system named is Acinetobacter baumannii ATCC 19606. Described as above. In kind it is cell-based. Conditions: ATCC19606; Acinetobacter baumannii ATCC 19606; 16-20 h; mode of three independent experiments; read-out: MIC, Ab ATCC 19606.
Assay [3] concerns Enterobacter cloacae NCTC 13406. The description is as above. In kind it is cell-based. Conditions: NCTC13406; Enterobacter cloacae NCTC 13406; 16-20 h; mode of three independent experiments; read-out: MIC, Ecl NCTC 13406.
Assay [4] relates to Escherichia coli ATCC 25922. The assay is described as above. The class given is cell-based. The note with it: ATCC25922; Escherichia coli ATCC 25922; 16-20 h; mode of three independent experiments; read-out: MIC, Ec ATCC 25922.
In a further assay the test system is E. coli ATCC BAA-2452. Described as above. The note with it: Escherichia coli ATCC BAA-2452; 16-20 h; mode of three independent experiments; read-out: MIC, Ec ATCC BAA 2452. In kind it is cell-based.
The test system of another assay is E. coli NCTC 13476. The assay is described as above. Conditions: NCTC13476; Escherichia coli NCTC 13476; 16-20 h; mode of three independent experiments; read-out: MIC, Ec NCTC 13476. The class given is cell-based.
The next assay concerns E. coli MG1655. The assay is described as above. In kind it is cell-based, Escherichia coli. Conditions: Escherichia coli, MG1655, read-out: MIC, Ec MG1655 WT.
Assay [5] concerns Haemophilus influenzae ATCC 49247. The assay is described as above. In kind it is cell-based. The note with it: ATCC49247; Haemophilus influenzae ATCC 49247; 16-20 h; mode of three independent experiments; read-out: MIC, Hi ATCC 49247.
Assay [6] has as its system Pseudomonas aeruginosa ATCC 27853. Described as above. In kind it is cell-based. The note with it: ATCC27853; Pseudomonas aeruginosa ATCC 27853; 16-20 h; mode of three independent experiments; read-out: MIC, Pa ATCC 27853.
Another assay has as its system E. coli MG1655 S83L. The class given is cell-based, Escherichia coli. The note with it: compared to the isogenic parent strain E. coli MG1655; S83L mutation on DNA gyrase subunit GyrA.
The next assay deals with E. coli MG1655 D87G. In kind it is cell-based, Escherichia coli. The note with it: compared to the isogenic parent strain E. coli MG1655; D87G mutation on DNA gyrase subunit GyrA.
Assay [7] relates to human hepatic cell line (HepG2 ATCC HB-8065). In words: Human cell viability assay (CellTiter-Glo). Conditions: Homo sapiens, HepG2, 24 h, read-out: IC50 (μg/mL) HepG2. In general terms: In ATP-based viability assays light output follows the ATP content of the culture.

In brackets after ≈: the same amount, converted by molar mass.

`COc1ccc2ncc(=O)n(CCN[C@@H]3CC[C@@H]4[C@@H](C3)OC(=O)N4c3ccc4c(n3)NC(=O)CO4)c2c1` [Compound 21, 1-(2-{[(3aR,6R,7aR)-2-oxo-3-{3-oxo-2H,3H,4H-pyrido[3,2-b][1,4]oxazin-6-yl}-octahydro-1,3-benzoxazol-6-yl]amino}ethyl)-7-methoxy-1,2-dihydroquinoxalin-2-one]: the MIC (in assay [1]; in assay [2]; in [3]; in [4]; in the assay on E. coli ATCC BAA-2452; with E. coli NCTC 13476) was less than 1 µg/mL throughout. Further, the MIC (in the assay on E. coli MG1655; in [5]; in assay [6]) was less than 1 µg/mL throughout. In the assay with E. coli MG1655 S83L, the “Fold increase in MIC, E. coli MG1655 S83L” value was 1 fold. Further, in the assay on E. coli MG1655 D87G, the “Fold increase in MIC, E. coli MG1655 D87G” value was 2 fold. In addition, the IC50 in assay [7] was more than 100 µg/mL.
Consider `Cc1ccc2ncc(=O)n(CCN[C@H]3CC[C@H]4[C@@H](C3)OC(=O)N4c3ccc4c(n3)NC(=O)CO4)c2c1` [Compound 27, 1-(2-{[(3aS,6S,7aR)-2-oxo-3-{3-oxo-2H,3H,4H-pyrido[3,2-b][1,4]oxazin-6-yl}-octahydro-1,3-benzoxazol-6-yl]amino}ethyl)-7-methyl-1,2-dihydroquinoxalin-2-one], for which the MIC in assay [1] is 1 to 10 µg/mL (≈ 2.04 to 20.4 µM); in [3], 1 to 10 µg/mL (≈ 2.04 to 20.4 µM); in assay [4], less than 1 µg/mL; in assay [5], 1 to 10 µg/mL (≈ 2.04 to 20.4 µM); in [6], 1 to 10 µg/mL (≈ 2.04 to 20.4 µM). For the same compound, the IC50 in [7] was more than 100 µg/mL.
